One series relates to caspase-3 or 9. The series can be described thus: Western blotting of caspase-3 and 9 cleavage in HepG2 cells. As to conditions: HepG2, 17 hrs; M4N 80 μM, UCN-01 5 μM. Type of series: cell-based, human. The method, then:
After cells had been grown in […] flasks and treated with reagents, the cells were washed with PBS (−) three times and suspended in RIPA buffer (150 mM NaCl, 50 mM Tris-HCl (pH 8.0), 0.1% SDS, 1% NP40, and 0.5% deoxycholate) supplemented with protease inhibitor cocktail (Calbiochem, San Diego, Calif.). The sample volumes were adjusted by the total protein amount. Protein assay was performed by Bio-Rad Protein Assay (Bio-Rad Laboratories, Inc. Hercules, Calif.). The samples were resolved by the standard SDS-polyacrylamide gel electrophoresis and transferred to nitrocellulose membrane (Amersham Biosciences, Bjorkgatan, Sweden). […] The signals were detected by western blot chemiluminescence reagent plus (New England Nuclear Life Science Products, Boston, Mass.).
The effect of the combination treatments on cell death and autophagy was examined in two cell lines other than LNCaP cells. […] On the contrary caspase-7 cleavage was detected in MCF-7 cells treated with UCN-01 treatment alone, the combination treatments of M4N with either etoposide or UCN-01 (FIG. 4C). […] On the contrary a great deal of caspase-7 cleavage product was detected in HepG2 cells treated with UCN-01 or the combination treatment of M4N with UCN-01 while a small amount of caspase-7 cleavage product was detected in the cells treated with etoposide or rapamycin regardless of a concomitant treatment with M4N (FIG. 4C).
For orientation: In western blotting, separated proteins are transferred to a membrane and probed.

For the next series, the system named is caspase-7. The series can be described thus: Western blotting of caspase-7 cleavage in HepG2 cells. Type of series: cell-based, human. Particulars: HepG2, 17 hrs; M4N 80 μM, etoposide 20 μM, rapamycin 20 μM, UCN-01 5 μM. Here is the method: (§1) The sample volumes were adjusted by the total protein amount. Protein assay was performed by Bio-Rad Protein Assay (Bio-Rad Laboratories, Inc. Hercules, Calif.). The samples were resolved by the standard SDS-polyacrylamide gel electrophoresis and transferred to nitrocellulose membrane (Amersham Biosciences, Bjorkgatan, Sweden). The membranes were blocked with skim milk, and incubated with primary antibodies at 4° C. overnight and then with secondary antibody conjugated with horse radish peroxidase at room temperature for 2 hrs. The signals were detected by western blot chemiluminescence reagent plus (New England Nuclear Life Science Products, Boston, Mass.).
The effect of the combination treatments on cell death and autophagy was examined in two cell lines other than LNCaP cells.

For series [1] the following is noted: human patients (reference 10); cited from earlier work.
The next series concerns LC3B. The series can be described thus: Immunocytochemistry of LC3B (autophagosomes) in LNCaP cells. Type of series: cell-based, human. Particulars: 6 hrs, Baflomycin A1 (100 nM), control cells and cells under combination treatments, M4N 80 μM. An excerpt: […] After permeabilized by 0.2% Tryton X-100 and 1% goat serum diluted in PBS (−), the cells were blocked by PBS (−) containing 5% goat serum.

Another series has as its system LC3B-II. The series can be described thus: Western blotting of LC3B-II (autophagy) in HepG2 cells. Type of series: cell-based, human. Particulars: HepG2, 15 hrs; M4N 80 μM. Here is the method:
as §1, with “Mass.). The effect of […] on autophagy was examined using the western blotting for LC3B-II in the presence of Baflomycin A1 in MCF-7 and HepG2 cells (FIG. 4D).” for “Mass.).”

Another series relates to BNIP3. In words: Western blotting of BNIP3 in LNCaP cells, normoxic or hypoxic. It counts as cell-based, human. As to conditions: normoxic or hypoxic condition, M4N 80 μM. The source says: LNCaP human prostate cancer, DU145 human prostate cancer, PC3 human prostate cancer, MCF-7 human breast cancer, MDA-MB-231 human breast cancer, MDA-MB-468 human breast cancer, HT29 human colon cancer, K562 human myelogenous leukaemia, HepG2 human hepatoma, Hep3B human hepatoma, and LN229 human glioblastoma cancer cell lines were purchased from American Type Culture Collection (Manassas, Va.). OC24 human ascites ovarian cancer cell line was a generous gift from Dr. XXX (Johns Hopkins University, MD). LNCaP cell line was cultured in RPMI1640 medium supplemented with glucose (14 mM), pyruvate (1 mM), and fetal bovine serum (FBS) (10%). DU145 cell line was cultured in MEM supplemented with non-essential amino acids, glucose (21 mM), pyruvate (1 mM), and FBS (10%). PC3 cell line was cultured in F-12K medium supplemented with FBS (10%). MCF-7 cell line was cultured in DMEM supplemented with FBS (10%). OC24 cell line was cultured in RPMI1640 medium supplemented with FBS (10%) as suspension culture. MDA-MB-231 and 468 cell lines were cultured in Leibovitz's L15 medium supplemented with FBS (10%) under air. HT29 cell line was cultured in DMEM supplemented with glucose (25 mM) and FBS (10%). K562 cell line was cultured in RPMI1640 supplemented with FBS (10%). […] The signals were detected by western blot chemiluminescence reagent plus (New England Nuclear Life Science Products, Boston, Mass.). […]

For the compound `CN[C@@H]1C[C@H]2O[C@@](C)([C@@H]1OC)n1c3ccccc3c3c4c(c5c6ccccc6n2c5c31)C(=O)N[C@H]4O` [UCN-01, 7-hydroxystaurosporine], the caspase-3 cleaved product entry in the series on caspase-3 or 9 was “small amount”. For the same compound, the caspase-7 cleavage product result with caspase-7 was “great deal”.

Consider `COc1ccc(C[C@@H](C)[C@@H](C)Cc2ccc(OC)c(OC)c2)cc1OC` [M4N, Tetra-O-methyl nordihyroguaiaretic acid], for which the “toxicity in clinical trials” value in series [1] is listed as “fairly nontoxic”. Also, the “net amount of autophagosomes (LC3B staining)” value in the series on LC3B is “reduced the net amount of autophagosomes”. Moreover, the “autophagy (LC3B-II in the presence of Baflomycin A1)” value with LC3B-II is given as “blocks autophagy”. Besides, the BNIP3 protein expression result in the series with BNIP3 was “blocks BNIP3 protein expression”.

The values above are taken from patent publication US9101567B2, “Suppression of cancer growth and metastasis using nordihydroguaiaretic acid derivatives with 7-hydroxystaurosporine” (The Johns Hopkins University, priority 2010, dated 2015).
